Measurements as given in article PMC12198282, “Application of a high-density microelectrode array assay using a 3D human iPSC-derived brain microphysiological system model for in vitro neurotoxicity screening of environmental compounds” (Archives of Toxicology, 2025).
Read-outs that look alike come from different tables or passages of the source.

How the values were obtained:
[1] = tested on: human iPSC-derived 3D BrainSpheres; experiment: BrainSphere MEA assay (HD-MEA, 13-day exposure, concentration-response); type: cell-based; settings: for EC (benchmark response 1.349 SD): 312 h; on hitc Mean.Spheroid.Burst.Duration: key: 1 (active); 0 (inactive); on hitc Mean.Spheroid.Burst.ISI: key: 1 (active); 0 (inactive); on hitc Mean.Spheroid.Burst.Peak.Firing.Rate: key: 1 (active); 0 (inactive); on hitc Mean.Spheroid.Firing.Rate: key: 1 (active); 0 (inactive); on hitc Mean.Spheroid.IBI: key: 1 (active); 0 (inactive); on hitc Mean.Spheroid.Nonburst.ISI: key: 1 (active); 0 (inactive); on hitc Mean.Spheroid.Spikes.per.Burst.per.Electrode: key: 1 (active); 0 (inactive); on hitc Mean.Spheroid.Spikes.per.Burst: key: 1 (active); 0 (inactive); on hitc Spheroid.Burst.Frequency: key: 1 (active); 0 (inactive); on hitc Spheroid.Spike.Amplitude.90th.Percentile: key: 1 (active); 0 (inactive)
Outline: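 Recordings used a 5× RMS spike threshold and 600 s network scans of fixed electrode regions, each region clustered as one BrainSphere. Spheres had 7 weeks of differentiation and 48 h attachment on coated HD-MEA chips before day 0 of the 13-day concentration-response exposure. At least three independent plates were run.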

2D rat cortical cultures [2] = settings: cited from earlier work
2D rat cortical cultures [3] = settings: read-out: ac50 CCTE_Shafer_MEA_dev_LDH; rNFA mc5; cytotoxicity LDH; cited from earlier work
Wherever hitc CCTE Shafer MEA dev active electrodes number is given: key: 1 (active); 0 (inactive).
Wherever hitc CCTE Shafer MEA dev burst duration mean is given: key: 1 (active); 0 (inactive).
Wherever hitc CCTE Shafer MEA dev burst rate is given: key: 1 (active); 0 (inactive).
Wherever hitc CCTE Shafer MEA dev bursting electrodes number is given: key: 1 (active); 0 (inactive).
Wherever hitc CCTE Shafer MEA dev correlation coefficient mean is given: key: 1 (active); 0 (inactive).
Wherever hitc CCTE Shafer MEA dev firing rate mean is given: key: 1 (active); 0 (inactive).
Wherever hitc CCTE Shafer MEA dev inter network spike interval mean is given: key: 1 (active); 0 (inactive).
Wherever hitc CCTE Shafer MEA dev interburst interval mean is given: key: 1 (active); 0 (inactive).
Wherever hitc CCTE Shafer MEA dev mutual information norm is given: key: 1 (active); 0 (inactive).
Wherever hitc CCTE Shafer MEA dev network spike duration std is given: key: 1 (active); 0 (inactive).
Wherever hitc CCTE Shafer MEA dev network spike number is given: key: 1 (active); 0 (inactive).
Wherever hitc CCTE Shafer MEA dev network spike peak is given: key: 1 (active); 0 (inactive).
Wherever hitc CCTE Shafer MEA dev per burst interspike interval is given: key: 1 (active); 0 (inactive).
Wherever hitc CCTE Shafer MEA dev per burst spike percent is given: key: 1 (active); 0 (inactive).
Wherever hitc CCTE Shafer MEA dev per network spike spike number mean is given: key: 1 (active); 0 (inactive).
Wherever hitc CCTE Shafer MEA dev per network spike spike percent is given: key: 1 (active); 0 (inactive).
Wherever hitc CCTE Shafer MEA dev spike duration mean is given: key: 1 (active); 0 (inactive).

With `CN(C)C(=O)C(CCN1CCC(O)(c2ccc(Cl)cc2)CC1)(c1ccccc1)c1ccccc1` [Loperamide] the “ACC Mean.Spheroid.Burst.Duration” value [1] was 0.076 µM, the “ACC Mean.Spheroid.Burst.ISI” value [1] was 0.019 µM and the “ACC Mean.Spheroid.Burst.Peak.Firing.Rate” value [1] was 0.065 µM. For the same molecule, the “ACC Mean.Spheroid.Firing.Rate” value [1] was 0.036 µM, the “ACC Mean.Spheroid.IBI” value [1] was 0.9 µM and the “ACC Mean.Spheroid.Nonburst.ISI” value [1] was 0.97 µM. The “ACC Mean.Spheroid.Spikes.per.Burst” value [1] was 0.08 µM, the “ACC Mean.Spheroid.Spikes.per.Burst.per.Electrode” value [1] was 0.082 µM and the “ACC Spheroid.Burst.Frequency” value [1] was 0.026 µM. For the same molecule, the “ACC Spheroid.Spike.Amplitude.90th.Percentile” value [1] was 6.6 µM, the “BMD Mean.Spheroid.Burst.Duration” value [1] was 0.087 µM and the “BMD Mean.Spheroid.Burst.Peak.Firing.Rate” value [1] was 0.071 µM. The “BMD Mean.Spheroid.Firing.Rate” value [1] was 0.025 µM, the “BMD Mean.Spheroid.IBI” value [1] was 0.83 µM and the “BMD Mean.Spheroid.Spikes.per.Burst” value [1] was 0.054 µM. For the same molecule, the “BMD Mean.Spheroid.Spikes.per.Burst.per.Electrode” value [1] was 0.07 µM, the “BMD Spheroid.Burst.Frequency” value [1] was 0.031 µM and the “BMD Spheroid.Spike.Amplitude.90th.Percentile” value [1] was 2.6 µM. The “Bioactivity trend over time for MFR, mean spike amplitude and burst frequency (qualitative)” value [1] was “appeared to decrease activity”, the “Difference of minimum potency between BrainSphere MEA assay and rNFA” value [1] was no more than 0.5 log10 µM and the Percent active [1] was 100%. The “hitc Mean.Spheroid.Burst.Duration” value [1] was 1, the “hitc Mean.Spheroid.Burst.ISI” value [1] was 1 and the “hitc Mean.Spheroid.Burst.Peak.Firing.Rate” value [1] was 1. For the same molecule, the “hitc Mean.Spheroid.Firing.Rate” value [1] was 1, the “hitc Mean.Spheroid.IBI” value [1] was 1 and the “hitc Mean.Spheroid.Nonburst.ISI” value [1] was 1. The “hitc Mean.Spheroid.Spikes.per.Burst” value [1] was 1, the “hitc Mean.Spheroid.Spikes.per.Burst.per.Electrode” value [1] was 1 and the “hitc Spheroid.Burst.Frequency” value [1] was 1. For the same molecule, the “hitc Spheroid.Spike.Amplitude.90th.Percentile” value [1] was 1, the EC (benchmark response 1.349 SD) ([1]; Homo sapiens, read-out: BMD Mean.Spheroid.Burst.ISI) was 0.04 µM and the EC (benchmark response 1.349 SD) ([1]; Homo sapiens, read-out: BMD Mean.Spheroid.Nonburst.ISI) was 0.95 µM. The AC50 ([1]; Homo sapiens, read-out: ac50 Mean.Spheroid.Burst.Duration) was 0.14 µM, the AC50 ([1]; Homo sapiens, read-out: ac50 Mean.Spheroid.Burst.ISI) was 0.1 µM and the AC50 ([1]; Homo sapiens, read-out: ac50 Mean.Spheroid.Burst.Peak.Firing.Rate) was 0.12 µM. The AC50 ([1]; Homo sapiens, read-out: ac50 Mean.Spheroid.Firing.Rate) was 0.023 µM, the AC50 ([1]; Homo sapiens, read-out: ac50 Mean.Spheroid.IBI) was 0.91 µM and the AC50 ([1]; Homo sapiens, read-out: ac50 Mean.Spheroid.Nonburst.ISI) was 0.99 µM. It also gave an AC50 ([1]; Homo sapiens, read-out: ac50 Mean.Spheroid.Spikes.per.Burst) of 0.073 µM, an AC50 ([1]; Homo sapiens, read-out: ac50 Mean.Spheroid.Spikes.per.Burst.per.Electrode) of 0.094 µM and an AC50 ([1]; Homo sapiens, read-out: ac50 Spheroid.Spike.Amplitude.90th.Percentile) of 8.9 µM. The AC50 ([1]; read-out: ac50 Mean.Spheroid.Burst.Duration) was 0.145 µM, the AC50 ([1]; read-out: ac50 Mean.Spheroid.Burst.ISI) was 0.103 µM and the AC50 ([1]; read-out: ac50 Mean.Spheroid.Burst.Peak.Firing.Rate) was 0.115 µM. The AC50 ([1]; read-out: ac50 Mean.Spheroid.Nonburst.ISI) was 0.989 µM, the AC50 ([1]; read-out: ac50 Spheroid.Spike.Amplitude.90th.Percentile) was 8.93 µM and the “Bioactivity in the rNFA (in words)” value (2D rat cortical cultures [2]) was “alter multiple parameters of network formation”. The “hitc CCTE_Shafer_MEA_dev_active_electrodes_number” value (2D rat cortical cultures [2]) was 1, the “hitc CCTE_Shafer_MEA_dev_burst_duration_mean” value (2D rat cortical cultures [2]) was 1 and the “hitc CCTE_Shafer_MEA_dev_burst_rate” value (2D rat cortical cultures [2]) was 1. For the same molecule, the “hitc CCTE_Shafer_MEA_dev_bursting_electrodes_number” value (2D rat cortical cultures [2]) was 1, the “hitc CCTE_Shafer_MEA_dev_correlation_coefficient_mean” value (2D rat cortical cultures [2]) was 1 and the “hitc CCTE_Shafer_MEA_dev_firing_rate_mean” value (2D rat cortical cultures [2]) was 1. For the same molecule, the “hitc CCTE_Shafer_MEA_dev_inter_network_spike_interval_mean” value (2D rat cortical cultures [2]) was 0, the “hitc CCTE_Shafer_MEA_dev_interburst_interval_mean” value (2D rat cortical cultures [2]) was 1 and the “hitc CCTE_Shafer_MEA_dev_mutual_information_norm” value (2D rat cortical cultures [2]) was 1. The “hitc CCTE_Shafer_MEA_dev_network_spike_duration_std” value (2D rat cortical cultures [2]) was 1, the “hitc CCTE_Shafer_MEA_dev_network_spike_number” value (2D rat cortical cultures [2]) was 1 and the “hitc CCTE_Shafer_MEA_dev_network_spike_peak” value (2D rat cortical cultures [2]) was 1. For the same molecule, the “hitc CCTE_Shafer_MEA_dev_per_burst_interspike_interval” value (2D rat cortical cultures [2]) was 1, the “hitc CCTE_Shafer_MEA_dev_per_burst_spike_percent” value (2D rat cortical cultures [2]) was 1 and the “hitc CCTE_Shafer_MEA_dev_per_network_spike_spike_number_mean” value (2D rat cortical cultures [2]) was 1. For the same molecule, the “hitc CCTE_Shafer_MEA_dev_per_network_spike_spike_percent” value (2D rat cortical cultures [2]) was 1, the “hitc CCTE_Shafer_MEA_dev_spike_duration_mean” value (2D rat cortical cultures [2]) was 1 and the AC50 (2D rat cortical cultures [2]; read-out: ac50 CCTE_Shafer_MEA_dev_active_electrodes_number) was 0.196 µM. For the same molecule, the AC50 (2D rat cortical cultures [2]; read-out: ac50 CCTE_Shafer_MEA_dev_burst_duration_mean) was 0.033 µM, the AC50 (2D rat cortical cultures [2]; read-out: ac50 CCTE_Shafer_MEA_dev_burst_rate) was 0.042 µM and the AC50 (2D rat cortical cultures [2]; read-out: ac50 CCTE_Shafer_MEA_dev_bursting_electrodes_number) was 0.117 µM. The AC50 (2D rat cortical cultures [2]; read-out: ac50 CCTE_Shafer_MEA_dev_correlation_coefficient_mean) was 0.766 µM, the AC50 (2D rat cortical cultures [2]; read-out: ac50 CCTE_Shafer_MEA_dev_firing_rate_mean) was 0.063 µM and the AC50 (2D rat cortical cultures [2]; read-out: ac50 CCTE_Shafer_MEA_dev_interburst_interval_mean) was 0.249 µM. The AC50 (2D rat cortical cultures [2]; read-out: ac50 CCTE_Shafer_MEA_dev_mutual_information_norm) was 0.112 µM, the AC50 (2D rat cortical cultures [2]; read-out: ac50 CCTE_Shafer_MEA_dev_network_spike_duration_std) was 0.262 µM and the AC50 (2D rat cortical cultures [2]; read-out: ac50 CCTE_Shafer_MEA_dev_network_spike_number) was 0.033 µM. The AC50 (2D rat cortical cultures [2]; read-out: ac50 CCTE_Shafer_MEA_dev_network_spike_peak) was 1.81 µM, the AC50 (2D rat cortical cultures [2]; read-out: ac50 CCTE_Shafer_MEA_dev_per_burst_interspike_interval) was 0.067 µM and the AC50 (2D rat cortical cultures [2]; read-out: ac50 CCTE_Shafer_MEA_dev_per_burst_spike_percent) was 0.244 µM. The AC50 (2D rat cortical cultures [2]; read-out: ac50 CCTE_Shafer_MEA_dev_per_network_spike_spike_number_mean) was 0.766 µM, the AC50 (2D rat cortical cultures [2]; read-out: ac50 CCTE_Shafer_MEA_dev_per_network_spike_spike_percent) was 2.31 µM and the AC50 (2D rat cortical cultures [2]; read-out: ac50 CCTE_Shafer_MEA_dev_spike_duration_mean) was 0.511 µM. The AC50 (2D rat cortical cultures [3]) was 2.94 µM.
